The NIST ThermoML archive (doi:10.1021/je5000692)
Numbers after ± are expanded uncertainties.

Assay: relative permittivity at various frequencies (dimensionless)
Conditions: Liquid, Frequency=0.001 MHz, Coaxial cylinder capacitor

CCCCCCCC [octane]
Conditions | relative permittivity
303.07 K, 5010 kPa | 1.94148 ± 0.0007
303.07 K, 10050 kPa | 1.94875 ± 0.0007
303.07 K, 20060 kPa | 1.96184 ± 0.00072
303.07 K, 25030 kPa | 1.9682 ± 0.00072
333.25 K, 5040 kPa | 1.90899 ± 0.00072
333.25 K, 6780 kPa | 1.91211 ± 0.00071
333.25 K, 10020 kPa | 1.91777 ± 0.0007
333.25 K, 20050 kPa | 1.93287 ± 0.0007
333.25 K, 25050 kPa | 1.93989 ± 0.0007
373.16 K, 5040 kPa | 1.85755 ± 0.00069
373.16 K, 10030 kPa | 1.8684 ± 0.00069
373.16 K, 20030 kPa | 1.88737 ± 0.00069
373.16 K, 25060 kPa | 1.89562 ± 0.00071
398.17 K, 5010 kPa | 1.8243 ± 0.00067
398.17 K, 10010 kPa | 1.8374 ± 0.00067
398.17 K, 20050 kPa | 1.85955 ± 0.00069
398.17 K, 25040 kPa | 1.87023 ± 0.00069
